Measured values reported in patent publication US9944660B2, “Tricyclic benzoxaboroles as antibacterial agents” (Daiichi Sankyo Company, Limited, priority 2014, dated 2018).
Where two headings read alike, the source gives them in different places.

Tests used:
E. coli LRS = molecular target: T1, E. coli LRS (Escherichia coli, UniProt P07813); test: Leucine tRNA synthetase (LRS) enzyme inhibition assay; type: biochemical
T1 construct: made in house
Protocol: (§1) (Test Example 1) Leucine tRNA Synthetase (LRS) Enzyme Inhibition Assay [IC50]
(§2) E. coli and P. aeruginosa LRS enzymes were cloned, expressed and purified in-house. The IC50 values were determined by using following assay protocol.
(§3) Test compounds were diluted in milli-Q water. 5 μL (microliter) of test compound dilution was mixed with 20 μL of reaction mixture consisting of 100 millimolar Tris (Trizma base from Sigma), 120 millimolar potassium chloride (Sigma), […] magnesium chloride (Sigma), 50 millimolar dithiothreitol, 50 mg/mL E. coli tRNA (Roche), 150 micromolar leucine (Sigma), 0.5 microcurie of ^3H Leucine (Amersham) and 20 μL of appropriate dilution of LRS enzyme, incubate in shaker at about 30° C. for 20 minutes. The reaction was started by adding 5 μL of 40 millimolar ATP (Sigma) and incubated on shaker at the same temperature further for 20 minutes. The reaction was quenched with 150 μL ice cold trichloroacetic acid (10%). The content of each well was transferred to 96 well GF/C plates (from Pall), and washed with 150 μL of trichloroacetic acid (5%) using vacuum manifold (from Pall). Plates were dried and read using Microbeta Wallac liquid scintillation counters after adding 100 μL of scintillation cocktail (Perkin Elmer's OptiPhase ‘SuperMix’) to each well. IC50 was calculated with respect to enzyme control after subtracting background (No enzyme control) using Graph Pad Prism software.

P. aeruginosa LRS = molecular target: T2, P. aeruginosa LRS (Pseudomonas aeruginosa, UniProt Q9HX33); test: as above; type: biochemical; conditions: 3H leucine incorporation
T2 construct: made in house
T2 sequence (Q9HX33 whole entry): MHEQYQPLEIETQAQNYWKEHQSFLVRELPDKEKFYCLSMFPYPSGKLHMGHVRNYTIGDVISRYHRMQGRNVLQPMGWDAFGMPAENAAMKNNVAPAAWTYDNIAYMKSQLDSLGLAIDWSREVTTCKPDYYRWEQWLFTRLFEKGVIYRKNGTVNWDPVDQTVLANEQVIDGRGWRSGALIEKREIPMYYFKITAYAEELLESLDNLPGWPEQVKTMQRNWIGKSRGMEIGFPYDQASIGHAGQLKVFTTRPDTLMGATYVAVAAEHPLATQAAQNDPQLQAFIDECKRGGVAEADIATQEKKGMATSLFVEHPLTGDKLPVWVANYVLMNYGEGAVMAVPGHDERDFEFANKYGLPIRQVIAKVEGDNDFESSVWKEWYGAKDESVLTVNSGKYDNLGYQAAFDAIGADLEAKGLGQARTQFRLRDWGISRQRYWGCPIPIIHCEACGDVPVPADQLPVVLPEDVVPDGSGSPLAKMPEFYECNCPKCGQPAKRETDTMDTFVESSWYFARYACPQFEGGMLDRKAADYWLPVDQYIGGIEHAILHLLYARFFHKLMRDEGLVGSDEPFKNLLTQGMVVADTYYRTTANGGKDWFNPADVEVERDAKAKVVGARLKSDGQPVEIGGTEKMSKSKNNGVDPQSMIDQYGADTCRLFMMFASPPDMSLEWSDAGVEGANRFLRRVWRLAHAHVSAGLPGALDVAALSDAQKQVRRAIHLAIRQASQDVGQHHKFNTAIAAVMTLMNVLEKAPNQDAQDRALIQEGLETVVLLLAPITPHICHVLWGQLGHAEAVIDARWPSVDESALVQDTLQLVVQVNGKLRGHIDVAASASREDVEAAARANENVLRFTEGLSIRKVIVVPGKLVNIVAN
Protocol: as §1, §2, §3

K. pneumoniae ATCC 13883 = test: Bacterial susceptibility testing (MIC, CLSI microdilution); type: cell-based; conditions: Klebsiella pneumoniae, ATCC13883
Protocol: (§4) (Test Example 2) Method of Testing Susceptibility of Bacterial [MICs]
(§5) Minimum inhibitory concentration (MIC) were determined as recommended by the Clinical and Laboratory Standards Institute (CLSI) in 2010 (M100-520), in 2011 (M100-521), 2012 (M100-522) and in 2013 (M100-523) with minor modifications.
(§6) In short, bacterial cultures were streaked on Muller Hinton Agar plates and incubated at 35±2° C. for about 18 to 20 hours. Following day colony suspension was prepared in saline and adjusted to 0.5 McFarland using Densitometer. This culture was further diluted 100 fold in Muller Hinton Broth or M9 minimal media or pooled human urine and used for MIC determination. The test compounds were prepared in dimthylesulfoxide (DMSO) at concentration of 1 mg/mL, and diluted to 32 μg/mL in respective media. Further two fold serial dilution were prepared in 96 well microtiter plates. 50 μL of diluted cultures were added to all wells and incubated at 35±2° C. for about 16 to 20 hours.

E. coli ATCC 25922 [1] = test: as above; type: cell-based; conditions: Escherichia coli, ATCC25922
Protocol: as §4, §5, §6

[2] = tested on: P. aeruginosa PAO1 (parent, MexAB del, MexAB over expression); test: MICs against Pseudomonas efflux pump mutants; type: cell-based
Protocol: as §6
(Test Example 5) MICs Against Pseudomonas Efflux Pump Mutants
Multidrug-resistant (MDR) P. aeruginosa isolated from nosocomial infections in intensive care units (ICUs) are often related to altered regulation of the specific efflux pumps and porins in P. aeruginosa strains. Tested compounds that show similar activity against efflux pump overproducers and lab strains can be predictive of activity in nosocomial patients infected with MDR strains. To identify such compounds we have determined MICs against P. aeruginosa PAO1 against Efflux deleted and overproducer strains.

E. coli ATCC 25922 [3] = test: MICs in Muller Hinton Broth and pooled human urine; type: cell-based; conditions: Escherichia coli, ATCC25922
Protocol: as §6
(Test Example 4) MICs in Human Urine Against E. coli and K. pneumonia
Many antibacterial compounds like fluroquinolones loose activity in human urine at acidic pH (acidic urine promotes rigorous bacterial growth). MICs were performed using CLSI guidelines (2011) against E. coli 25922 in Muller Hinton Broth (MHB) and pooled human urine.

P. aeruginosa = test: Bacterial susceptibility testing (MIC, CLSI microdilution); type: cell-based; conditions: Pseudomonas aeruginosa, strain not stated, read-out: MIC against P. aeruginosa
Protocol: as §4, §5, §6

P. aeruginosa PAO-1 = test: In vivo efficacy in P. aeruginosa PAO1 murine lung infection model; conditions: subcutaneous 75 mg/kg twice daily
Protocol: (Test Example 3c) In Vivo Efficacy in P. aeruginosa PAO1 Murine Lung Infection Model Overnight grown culture of P. aeruginosa PAO-1 on TSA agar was inoculated in Brain heart infusion broth (BHI, DIFCO) and grown in a shaker incubator with shaking at 110 rpm at 35±2° C. overnight. The culture was subcultured in 50 mL of BHI and incubated again at 110 rpm at 35±2° C. on a shaker incubator till the optical density of the culture reaches 0.5-0.7 units. For infection, animals were weighed, randomized and anesthetized by giving isofluorane. Under anesthesia the animals were infected with 50 μL of the inoculum prepared as above by intranasal route. The test compounds were administered at 75 mg/kg body weight by subcutaneous route after 1 hour and 6 hours post infection. Animals were euthanized, lungs were removed aseptically and homogenized in PBS (3 mL) and serial dilutions plated on TSA plates 24 hours post infection.

P. aeruginosa PAO1 = test: In vivo efficacy in urinary tract infection (UTI) ascending model; parameters: species or system Mouse; conditions: 60 mg/kg body weight twice daily for 3 days, 4th day of infection
Protocol: (Test Example 3a) In Vivo Efficacy in Urinary Tract Infection (UTI) Model Mouse P. aeruginosa UTI ascending model was used. All animals were infected with P. aeruginosa PAO1 by intra-urethral route. Randomization was done 18 hours post infection before starting treatment. Therapy was initiated 18 hours post infection. Animals were treated with 30 mg/kg and 60 mg/kg body weight of test compounds twice daily for 3 days. Animals were sacrificed and cfu loads in kidney and bladder were detected by serial dilution platting on drug free TSA plates on day 4.

E. coli GK00432 = test: In vivo efficacy in E. coli murine neutropenic thigh infection model; parameters: species or system Swiss albino mice; conditions: subcutaneous
Protocol: (Test Example 3b) In Vivo Efficacy in E. coli Murine Neutropenic Thigh Infection Model
Efficacy of test compounds were evaluated by subcutaneous (SC) route against E. coli GK00432 in neutropenic mouse thigh infection model. Study was performed in Swiss albino mice of either sex weighing 20±2 g. Neutropenia was induced by intraperitoneal injections of cyclophosphamide given twice prior to infection (150 mg/kg, at 4 days prior to infection, and 100 mg/kg, at 1 day prior to infection). E. coli inoculum (0.1 mL) was injected intra-muscularly in the thigh muscle. After 2 hours, test compound at a dose of 30 mg/kg and 60 mg/kg body weight were administered by subcutaneous route and one group of mice (n=5) was sacrificed to evaluate total live bacterial count per thigh as baseline bacterial loads. Remaining three doses of test compound were administered by subcutaneous route after […] hours of the infection. Animals were euthanized, thigh muscles were removed aseptically and homogenized in phosphate buffered saline (3 mL) and serial dilutions plated Tryptone Soya Agar plates 26 hours post infection.

[4] = PAO1, read-out: MIC (μg/mL) P. aeruginosa PAO1 MexAB del
[5] = PAO1, read-out: MIC (μg/mL) P. aeruginosa PAO1 MexAB over expression
[6] = PAO1, read-out: MIC (μg/mL) P. aeruginosa PAO1 Parent
[7] = Muller Hinton Broth, read-out: E. coli ATCC 25922 MIC (μg/mL) MHB
[8] = pooled human urine pH 5.5, read-out: E. coli ATCC 25922 MIC (μg/mL) Urine pH 5.5

T1 sequence (P07813 whole entry): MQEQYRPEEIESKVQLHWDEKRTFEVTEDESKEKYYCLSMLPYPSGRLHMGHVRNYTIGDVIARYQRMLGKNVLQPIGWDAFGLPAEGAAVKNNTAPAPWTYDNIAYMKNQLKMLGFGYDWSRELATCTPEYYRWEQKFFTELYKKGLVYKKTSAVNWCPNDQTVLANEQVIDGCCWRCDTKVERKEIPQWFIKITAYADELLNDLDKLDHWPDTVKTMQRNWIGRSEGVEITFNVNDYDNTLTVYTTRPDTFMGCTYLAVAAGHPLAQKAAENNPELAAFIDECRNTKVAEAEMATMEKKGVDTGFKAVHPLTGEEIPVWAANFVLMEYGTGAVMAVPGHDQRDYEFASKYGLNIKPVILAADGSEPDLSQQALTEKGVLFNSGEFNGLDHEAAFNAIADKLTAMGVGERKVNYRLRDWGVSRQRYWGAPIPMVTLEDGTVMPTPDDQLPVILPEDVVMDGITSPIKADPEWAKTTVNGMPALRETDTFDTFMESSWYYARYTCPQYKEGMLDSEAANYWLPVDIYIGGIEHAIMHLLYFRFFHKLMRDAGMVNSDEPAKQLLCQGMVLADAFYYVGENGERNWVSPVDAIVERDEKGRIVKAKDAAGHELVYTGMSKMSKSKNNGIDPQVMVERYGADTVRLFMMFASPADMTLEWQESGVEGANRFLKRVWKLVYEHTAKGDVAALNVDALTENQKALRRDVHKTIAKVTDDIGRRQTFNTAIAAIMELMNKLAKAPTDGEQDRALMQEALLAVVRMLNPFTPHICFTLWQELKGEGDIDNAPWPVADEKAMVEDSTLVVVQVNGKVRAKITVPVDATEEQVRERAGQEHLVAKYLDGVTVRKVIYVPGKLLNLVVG

Compound	IC50 (E. coli LRS) [µM]	IC50 (P. aeruginosa LRS) [µM]	MIC (K. pneumoniae ATCC 13883) [mg/L]	MIC (E. coli ATCC 25922 [1]) [mg/L]	MIC [2, 4] [µg/mL]	MIC [2, 5] [µg/mL]	MIC [2, 6] [µg/mL]	MIC (E. coli ATCC 25922 [3]; [7]) [µg/mL]	MIC (E. coli ATCC 25922 [3]; [8]) [µg/mL]	MIC (P. aeruginosa) [mg/L]	log reduction in cfu from 24 hours untreated control (P. aeruginosa PAO-1) [log]	log reduction in cfu's from baseline (P. aeruginosa PAO-1) [log]	log reduction from the untreated control in bladder counts (P. aeruginosa PAO1; bladder) [log]	log reduction from the untreated control in kidney counts (P. aeruginosa PAO1; kidney) [log]	log reduction in colony forming units (cfu) from 26 hours untreated control (E. coli GK00432; 30 mg/kg four times daily (QID)) [log]	log reduction in colony forming units (cfu) from 26 hours untreated control (E. coli GK00432; 60 mg/kg four times daily (QID)) [log]
Cl.NCC1OB(O)c2ccc3c(c21)OCCO3 (stereo not shown) [Compound 7, 9-(aminomethyl)-2,3-dihydro[1,2]oxaborolo[4,3-f][1,4]benzodioxin-7(9H)-ol hydrochloride]	0.8	0.6	16	8	–	–	–	–	–	–	–	–	–	–	–	–
Cl.NCC1OB(O)c2cc3c(cc21)OCC3 (stereo not shown) [Compound 12, 3-(aminomethyl)-6,7-dihydrofuro[2,3-f][2,1]benzoxaborol-1(3H)-ol hydrochloride]	2.8	> 10	16	8	–	–	–	–	–	–	–	–	–	–	–	–
Cl.NCC1OB(O)c2cc3c(cc21)CCO3 (stereo not shown) [Compound 11, 3-(aminomethyl)-5,6-dihydrofuro[3,2-f][2,1]benzoxaborol-1(3H)-ol hydrochloride]	2.9	> 10	4	4	–	–	–	–	–	–	–	–	–	–	–	–
Cl.NCC1OB(O)c2c1ccc1c2CCCC1 (stereo not shown) [Compound 4, 3-(Aminomethyl)-6,7,8,9-tetrahydronaphtho[1,2-c][1,2]oxaborol-1(3H)-ol hydrochloride]	4.5	9.5	16	8	–	–	–	–	–	–	–	–	–	–	–	–
Cl.NCC1OB(O)c2cc3c(cc21)OCCO3 (stereo not shown) [Compound 2, 3-(aminomethyl)-6,7-dihydro[1,2]oxaborolo[3,4-g][1,4]benzodioxin-1(3H)-ol hydrochloride]	3.35	> 10	8	4	–	–	–	–	–	–	–	–	–	–	–	–
Cl.NCC1OB(O)c2c1ccc1c2OCO1 (stereo not shown) [Compound 9, 3-(aminomethyl)[1,3]dioxolo[4,5-g][2,1]benzoxaborol-1(3H)-ol; hydrochloride]	1.7	2.7	2	2	2	4	2	8	8	2	–	–	–	–	–	–
Cl.NC[C@H]1OB(O)c2c1ccc1c2OCO1 (single isomer, unassigned) [Compound 10]	–	–	0.5	2	1	1	1	2	4	1	3.53	2.07	3.83	4.18	–	–
Cl.NCC1OB(O)c2ccc3c(c21)OCO3 (stereo not shown) [Compound 5, 8-(aminomethyl)[1,3]dioxolo[4,5-e][2,1]benzoxaborol-6(8H)-ol hydrochloride]	0.8	2.3	1	1	4	8	4	2	4	8	–	–	–	–	3.1	3.8
Cl.NC[C@H]1OB(O)c2ccc3c(c21)OCO3 (single isomer, unassigned) [Compound 6, hydrochloride]	< 0.12	< 0.12	–	–	–	–	–	–	–	–	–	–	–	–	–	–
Cl.NCC1OB(O)c2c1ccc1c2OCCO1 (stereo not shown) [Compound 8, 3-(aminomethyl)-7,8-dihydro[1,2]oxaborolo[3,4-f][1,4]benzodioxin-1(3H)-ol hydrochloride]	2.1	3.2	4	4	4	4	2	8	16	4	–	–	–	–	–	–
Cl.NC[C@H]1OB(O)c2c1ccc1c2OCO1 (single isomer, unassigned) [Compound 10, hydrochloride]	0.38	0.62	–	–	–	–	–	–	–	–	–	–	–	–	–	–
Cl.NCC1OB(O)c2cc3c(cc21)OCO3 (stereo not shown) [Compound 1, 3-(aminomethyl)[1,3]dioxolo[4,5-f][2,1]benzoxaborol-1(3H)-ol hydrochloride]	1.4	> 10	4	4	–	–	–	–	–	–	–	–	–	–	–	–
Cl.NCC1OB(O)c2c1ccc1c2CCC1 (stereo not shown) [Compound 3, 3-(aminomethyl)-3,6,7,8-tetrahydro-1H-indeno[4,5-c][1,2]oxaborol-1-ol hydrochloride]	2.5	2.2	1	1	–	–	–	–	–	–	–	–	–	–	–	–
